Measured values from PMC6358721, “Engineering of B800 bacteriochlorophyll binding site specificity in the Rhodobacter sphaeroides LH2 antenna” (Biochimica et Biophysica Acta. Bioenergetics, 2019).

Biological target: T1, LH2 (light-harvesting 2 complex), B800 site; B850 LH2 when B800-depleted (Cereibacter sphaeroides, UniProt Q3J144+Q3J145)
T1 construct: gene pucA; native complex purified from Rba. sphaeroides membranes (LDAO, then beta-DDM); B800 BChl a removed with LDS for reconstitution; B850 BChl a and carotenoid retained; ring of nine alpha-beta pairs; R30L/R30F genomic at the puc1BA locus, R30E/R30M from pRK415 vectors, in delta-puc1BA delta-puc2BA delta-pufBALMX
T1 sequence (Q3J144 whole entry): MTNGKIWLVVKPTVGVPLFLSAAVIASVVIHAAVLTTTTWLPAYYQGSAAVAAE
T1 sequence (Q3J145 2-51): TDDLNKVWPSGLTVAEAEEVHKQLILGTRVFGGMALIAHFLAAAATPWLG
Experiment: reconstitution of B800-depleted LH2, absorption spectra
Type: binding
Settings: 20 mM Tris pH 8, 0.5% beta-DDM, 12 uM pigment, room temperature

Compound: C=Cc1c(C=O)c2[n]3c1C=C1N=C(C=c4c(C)c5c([n]4[Mg]3)=C(C3=NC(=C2)[C@@H](C)[C@@H]3CCC(=O)OC/C=C(\C)CCC[C@H](C)CCC[C@H](C)CCCC(C)C)[C@@H](C(=O)OC)C5=O)C(CC)=C1C [Chl f]
- reconstitution of B800-depleted LH2, absorption spectra: we generated additional novel reconstitutions using Chl f
